Assay results published in patent publication US20080033020A1, “3-Pyridinylethylbenzamide Derivatives as Fungicides” (priority 2004, published 2008).

Assays:
[1] = test system: Botrytis cinerea; experiment: Effectiveness on Botrytis cinerea (comparative compounds); assay type: in vivo; settings: at 330 ppm; comparative compounds of WO 01/11965
[2] = test system: Alternaria brassicae; experiment: In vivo test on Alternaria brassicae (leaf spot of crucifers) on radish plants; settings: at 330 ppm; comparative compounds of WO 01/11965
Experimental: The active ingredient tested is prepared by potter homogenisation in a concentrated suspension type formulation at 100 g/l. This suspension is then diluted with water to obtain the desired active material concentration.
Radish plants (Pernot variety) in starter cups, sown on a 50/50 peat soil-pozzolana substrate and grown at 18-20° C., are treated at the cotyledon stage by spraying with the aqueous suspension described above.
Plants, used as controls, are treated with an aqueous solution not containing the active material.
After 24 hours, the plants are contaminated by spraying them with an aqueous suspension of Alternaria brassicae spores (40,000 spores per cm^3). The spores are collected from a 12 to 13 days-old culture.
The contaminated radish plants are incubated for 6-7 days at about 18° C., under a humid atmosphere.
Grading is carried out 6 to 7 days after the contamination, in comparison with the control plants.
Under these conditions, good (at least 50%) or total protection is observed at a dose of 330 ppm or 110 ppm with the following compounds: 1, 2, 3, 4, 5, 6, 7, 8, 9, 10 and 11.

[3] = test system: Peronospora parasitica; experiment: Efficacy against Peronospora parasitica (comparative compound); assay type: in vivo; settings: at 330 ppm; comparative compound of WO 01/11965

Compound	effectiveness on Botrytis cinerea [1]	effectiveness on Alternaria brassicae [2]	efficacy against Peronospora parasitica [3]
CCNC(=O)C(Cc1ncc(C(F)(F)F)cc1Cl)NC(=O)c1ccccc1Br (stereo not drawn) [compound 310, N-{1-ethylcarbamoyl-2-[3-chloro-5-(trifluoromethyl)-2-pyridinyl]ethyl}-2-bromobenzamide]	zero effectiveness		
CCNC(=O)C(Cc1ncc(C(F)(F)F)cc1Cl)NC(=O)c1ccc(Cl)cc1 (stereo not drawn) [compound 306, N-{1-ethylcarbamoyl-2-[3-chloro-5-(trifluoromethyl)-2-pyridinyl]ethyl}-4-chlorobenzamide]	zero effectiveness		
CCNC(=O)C(Cc1ncc(C(F)(F)F)cc1Cl)NC(=O)c1cccc([N+](=O)[O-])c1 (stereo not drawn) [compound 307, N-{1-ethylcarbamoyl-2-[3-chloro-5-(trifluoromethyl)-2-pyridinyl]ethyl}-3-nitrobenzamide]	zero effectiveness	poor effectiveness	
CCNC(=O)C(Cc1ncc(C(F)(F)F)cc1Cl)NC(=O)c1ccccc1 (stereo not drawn) [compound 304, N-{1-ethylcarbamoyl-2-[3-chloro-5-(trifluoromethyl)-2-pyridinyl]-ethyl}-benzamide]	zero effectiveness		
CNC(=O)C(Cc1ncc(C(F)(F)F)cc1Cl)NC(=O)c1ccc(-c2ccccc2)cc1 (stereo not drawn) [compound 316, N-{1-methylcarbamoyl-2-[3-chloro-5-(trifluoromethyl)-2-pyridinyl]-ethyl}-4-phenylbenzamide]	zero effectiveness	poor effectiveness	
O=C(Cc1cccs1)NCc1ncc(C(F)(F)F)cc1Cl [compound 101, N-{[3-chloro-5-(trifluoromethyl)-2-pyridinyl]methyl}-5-thienylacetamide]	no efficacy	poor efficacy	no efficacy
CNC(=O)C(Cc1ncc(C(F)(F)F)cc1Cl)NC(=O)c1ccc(OC)cc1 (stereo not drawn) [compound 315, N-{1-methylcarbamoyl-2-[3-chloro-5-(trifluoromethyl)-2-pyridinyl]ethyl}-4-methoxybenzamide]	zero effectiveness		
CNC(=O)C(Cc1ncc(C(F)(F)F)cc1Cl)NC(=O)c1ccccc1 (stereo not drawn) [compound 314, N-{1-methylcarbamoyl-2-[3-chloro-5-(trifluoromethyl)-2-pyridinyl]ethyl}-benzamide]	zero effectiveness		
